In patent US10149907B2, “Combinations of a photosensitizer with a hydrogen sulfide donor, thioredoxin inhibitor or nitroxide for use in photodynamic therapy” (UNIVERSITY OF EXETER, priority 2014, dated 2018):
Values joined by “and” are separate entries in the source; they are usually repeats but may differ in a detail not shown here. Equal entries are not always repeated. Where two headings read alike, the source gives them in different places.

What was measured:
[1] = system: A431 cells; test: cells; type: cell-based; conditions: for increase in cell killing compared to the use of MAL alone: 10 nM; for potency compared to CP94 (50 μM) exerting a similar degree of potentiation: 10 nM vs CP94 50 μM; for modes of cell death: 1 mM MAL + SRHD 10, 100 or 1000 nM + irradiation, FIG. 19
Protocol: A431 cells (human epithelial squamous cell carcinoma cells) were seeded at a density of 1×10^6 cells/ml in T12.5 cm^2 flasks and incubated under 2% O2 for 48 h prior to treatment. After 24 h, the culture medium was replaced and the cells were placed back into the incubators under 2% O2. Following this incubation period, the culture medium was then removed and the flasks were washed with PBS. The cells were then treated with one of the SRHDs and incubated at 2% O2 for 2 h, after which MAL was added to a final concentration of 1 mM and the cells were incubated at 2% O2 for 3 h. This meant in total, the cells were treated with the SRHDs for 5 h.
Following this final incubation, cell death was analysed by annexin V-FITC and propidium iodide staining in conjunction with flow cytometry.
(§1) Cell death analysis by flow cytometry was carried out using the annexin V-FITC/propidium iodide protocol. This protocol allows a quantitative assessment of cell death, particularly specific modes of death, and involves staining the cells with fluorescein isothiocyanate-conjugated annexin A5 (annexin V-FITC) and propidium iodide (PI). Positive staining with annexin V-FITC alone indicates an apoptotic cell; positive staining with PI alone indicates a necrotic cell and dual staining of both annexin V and PI indicates a “late apoptotic” cell.
From each flask being assessed, the old medium was removed and placed into a corresponding individual 15 ml Falcon tube in order to collect any cells that may have detached from the surface. The flask was washed once with 1 ml PBS; also deposited in the Falcon tubes. Trypsin (500 μl) was added to each flask and the flasks were returned to the incubator with their caps loosened. Cell detachment was monitored using an inverted light microscope, until 50% of the cells were detached. The flasks were then lightly tapped to detach the remainder of the cells. Medium (2 ml) was added to each flask in order to neutralise the trypsin present before being removed and dispensed into the Falcon tubes. One more wash with PBS was carried out in order to ensure any cells left in the flasks were collected. The Falcon tubes were then centrifuged at 490 g for 3 min, forming a pellet at the bottom of the tube. The supernatant was discarded, and the cells were re-suspended in 5 ml of PBS, in order to wash them, before being centrifuged again at 490 g for 3 min. […] The Falcon tubes were placed on ice and in the dark for 15 min to allow annexin V staining. […] The samples were then ready to be assessed by flow cytometry.
(§2) The following flow cytometry process of sample detection was used. When using annexin V-FITC and PI, the detectors being used were FL1 (λmax=520 nm) and FL3 (λmax=670 nm), respectively, each with their own logarithmic histogram generated by the software. The intensity of the fluorescence detected is measured on a logarithmic scale on the x-axis and the y-axis represents the number of cells detected at a given fluorescence intensity. A plot of FL1/FL3 produces a 4-quadrant graph, where unstained and untreated cells are located in the bottom left quadrant, representing any cells found in the 1st decade of the single plot logarithmic histograms. Single staining with annexin V-FITC and PI are located in the bottom right and top left quadrant, respectively, and dual staining is located in the top right quadrant. These quadrants represent any cells detected above the 1st decade of the logarithmic histograms.

[2] = system: A431 cells; test: MAL-induced PpIX accumulation, fluorescence plate reader; type: cell-based, human; conditions: for effect on PpIX accumulation compared to 1 mM MAL: 10, 100 and 1000 nM 5 hours + MAL 1 mM 3 hours, FIG. 21, 22
Protocol: After treatment, the cells were washed with PBS and a final 100 μl PBS was pipetted into each well for fluorescence readings. The fluorescence of PpIX was measured using a BMG Pherastar plate reader with a 410 nm excitation filter and a 630 nm emission filter.
A431 cells were treated concurrently with slow-releasing hydrogen sulfide donors (1 μM) for 5 hours and MAL (1 mM) for 3 hours, after which PpIX accumulation was measured by fluorescence plate reader (excitation 410 nm, […]). Co-treatment with CP94 (50 μM) was used as a positive control and for comparison.

[3] = system: A431 cells; conditions: for tolerance over 72 hours: 0-1000 nM
Protocol: A431 cells were seeded at a density of 1×10^5 cells/ml in 96 well plates and incubated under 2% O2 for 48 h prior to treatment. After 24 h, the culture medium was replaced and the cells were placed back into the incubators under 2% O2. Following this incubation period, the culture medium was then removed and the plates were washed with PBS. The cells were then treated with 1 mM MAL in the absence or presence of one of the compounds of interest and then incubated again at 2% O2 for 3 h. For experiments carried out with SRHDs, this treatment step was carried out for 5 h at 2% O2. After treatment, the cells were washed with PBS, the culture medium was replaced and the cells were placed back under 2% O2 for 3 h. Following this final incubation, cell death was analysed using the resazurin viability assay.
Resazurin (7-hydroxy-3H-phenoxazin-3-one 0-oxide) is a weakly fluorescent blue dye used primarily in oxidation-reduction cell viability assays. Irreversible NADH-dependent reduction by the mitochondria in mammalian cells leads to the production of resorufin, a highly fluorescent product with excitation at 571 nm, emission at 585 nm.
A431 cells were seeded into 96 well plates at a density of 1.5*10^6 cells per ml (200 μl per well, 3*10^5 cells) and incubated for 24 h to adhere. Following incubation, the cells were washed and treated with the compound of interest for the relevant time, and then washed with PBS. […] After a 2 h incubation, the fluorescence of each well was measured (excitation: 571 nm, emission: 585 nm) using a fluorescence plate reader. Data from these experiments was plotted as a percentage of cell viability compared to untreated control cells.

[4] = system: A431 cells; test: Mitochondrial reactive oxygen species generation during photodynamic irradiation, MitoSOX flow cytometry; type: cell-based, human
Protocol: A431 cells were treated concurrently with AP39-C10 (10, 100 or 1000 nM) for 5 hours, MAL (1 mM) for 3 hours and MitoSOX (2.5 μM) for 1 hour, after which they were irradiated for 5 min (630 nm, 25 J/cm^2) and MitoSOX (mito-2-OH-E^+) fluorescence, indicative of mitochondrial oxidant production, was immediately analysed by flow cytometry. Results are set out in FIG. 23.
Mitochondria-targeted dihydroethidium (i.e. MitoSOX) was used to assess the production of mitochondrial reactive oxygen species (ROS) by PpIX photochemical reactions and to determine the effects of AP39-C10 on this process. All of the results are represented as a percentage of the untreated controls (100.0±8.5%). The fluorescence of the photoirradiated cells, which had been pre-treated with MAL, was 193.7±7.3% (p<0.001 c.f. untreated controls).

[5] = system: A431 cells; test: MAL-induced PpIX accumulation, fluorescence plate reader; type: cell-based, human; conditions: 3 hours
[6] = system: A431 cells; test: Photodynamic cell killing in the presence of inhibitors of the thioredoxin antioxidant system or nitroxides (annexin V-FITC/propidium iodide flow cytometry); type: cell-based, human
Protocol: After this treatment, the cells were irradiated for 5 min (630 nm, 25 J/cm^2), then washed with PBS and the culture medium was replaced, after which the cells were placed back under 2% O2 and incubated for a further 3 h. Following this final incubation, cell death was analysed by annexin V-FITC and propidium iodide staining in conjunction with flow cytometry.
as §1
From each flask being assessed, the old medium was removed and placed into a corresponding individual 15 ml Falcon tube in order to collect any cells that may have detached from the surface. The flask was washed once with 1 ml PBS; also deposited in the Falcon tubes. Trypsin (500 μl) was added to each flask and the flasks were returned to the incubator with their caps loosened. Cell detachment was monitored using an inverted light microscope, until 50% of the cells were detached. The flasks were then lightly tapped to detach the remainder of the cells. Medium (2 ml) was added to each flask in order to neutralise the trypsin present before being removed and dispensed into the Falcon tubes. One more wash with PBS was carried out in order to ensure any cells left in the flasks were collected. The Falcon tubes were then centrifuged at 490 g for 3 min, forming a pellet at the bottom of the tube. The supernatant was discarded, and the cells were re-suspended in 5 ml of PBS, in order to wash them, before being centrifuged again at 490 g for 3 min. The wash stage was carried out once more before re-suspending the cell pellet in 95 μl of ice cold calcium (Ca^2+) buffer (50 mM HEPES, 700 mM NaCl, 12.5 mM CaCl2, pH 7.4) and adding 5 μl 12.5 μg/ml of annexin V-FITC (final concentration, 1.25 μg/ml), under reduced light conditions to prevent bleaching of the FITC. The Falcon tubes were placed on ice and in the dark for 15 min to allow annexin V staining. After 15 min, 860 μl of Ca^2+ buffer (10 mM Hepes adjusted to pH 7.4, 140 mM NaCl and 2.5 mM CaCl2) was added, followed by 40 μl of 1 mg/ml PI in water (final concentration, 0.04 mg/ml) to give a final volume of 1 ml. The samples were then ready to be assessed by flow cytometry.
as §2

[7] = 1 mM MAL + SRHD 10 nM (5 h) + irradiation, FIG. 18
[8] = 1 mM MAL + SRHD 100 nM (5 h) + irradiation, FIG. 18
[9] = 1 mM MAL + SRHD 1 μM (5 h) + irradiation, 3 h post-irradiation
[10] = 1 mM MAL + SRHD 1000 nM (5 h) + irradiation, FIG. 18
[11] = dark toxicity, without irradiation, SRHD 1 μM, 5 h, FIG. 1, 3
[12] = MAL 1 mM + SRHD 10 nM (5 hours), irradiated
[13] = MAL 1 mM + SRHD 100 nM (5 hours), irradiated
[14] = MAL 1 mM + SRHD 1000 nM (5 hours), irradiated

Row | SMILES | increase in cell killing compared to the use of MAL alone [1] [fold] | potency compared to CP94 (50 μM) exerting a similar degree of potentiation [1] [fold] | cell death [1, 7] [%] | cell death [1, 8] [%] | cell death [1, 9] [%] | cell death [1, 10] [%] | modes of cell death [1] | cell death [1, 11] [%] | effect on PpIX accumulation compared to 1 mM MAL [2] | tolerance over 72 hours ([3]; 72 hours) | cell viability, percentage of untreated control ([3]; 500 μM, 5 hours, FIG. 15, 16) [%] | MitoSOX fluorescence, percentage of untreated controls [4, 12] [%] | MitoSOX fluorescence, percentage of untreated controls [4, 13] [%] | MitoSOX fluorescence, percentage of untreated controls [4, 14] [%] | also measured
1 | O=C(CCCCCCCCC[P+](c1ccccc1)(c1ccccc1)c1ccccc1)Oc1ccc(-c2cc(=S)ss2)cc1 [AP39-C10] | ~2 | 5000 | 50.7±3.1 | 53.1±2.3 | 45.3±1.9 | 50.2±4.9 | a further increase in apoptosis and late apoptosis, with no apparent effect on necrotic cell death | 12.1±4.9 | no effect on PpIX accumulation across any of the tested concentrations | well tolerated at each concentration tested | 59.3±13.3 | 207.3±10.7 | 227.1±3.5 | 214.3±6.4 | cell viability, percentage of untreated control ([3]; 1000 nM, 72 hours, FIG. 17): 94.1±2.6%
2 | NC(=S)c1ccc(OC(=O)CCCCCCCCC[P+](c2ccccc2)(c2ccccc2)c2ccccc2)cc1 [AP123-C10] | ~2 | 5000 | 57.2±1.3 | 56.5±2.7 | 50.9±6.5 | 66.7±5.6 | a further increase in apoptosis and late apoptosis, with no apparent effect on necrotic cell death | 14.5±0.5 | no effect on PpIX accumulation across any of the tested concentrations | well tolerated at each concentration tested | 62.6±9.1 | 237.4±8.2 | 245.3±10.6 | 248.1±15.1 | –
3 | CCc1c(O)c(O)cc[n+]1CC.[Cl-] [CP94] | – | – | – | – | – | – | – | – | – | – | – | – | – | – | increase in PpIX accumulation compared to MAL alone ([5]; 50 μM + MAL 1 mM, FIG. 35): 223.2±26.1%; peak response, increase in PpIX accumulation compared to MAL alone ([5]; peak at TEMPO 5 mM, MitoTEMPO 100 μM, CP94 100 μM, MAL 1 mM): 228.1±42.3%; effect on PpIX accumulation compared to 1 mM MAL alone ([2]; CP94 50 μM + MAL 1 mM, positive control): significantly increased PpIX accumulation; MitoSOX fluorescence, percentage of untreated cells ([4]; MAL 1 mM + co-treatment 50 μM, 3 hours, irradiated): 198.4±7.7%
4 | COC(=O)CCC(=O)CN [MAL, methyl aminolaevulinate] | – | – | – | – | – | – | – | – | – | – | – | – | – | – | cell death ([6]; 1 mM MAL 3 h and irradiation (630 nm, 25 J/cm2) alone, no co-treatment): 32.5±3.6% and 29.1±3.8% and 34.4±3.2% and 26.8±1.9% and 24.6±4.2%; modes of cell death ([6]; 1 mM MAL and irradiation alone, compared to untreated controls): increase in all types of cell death; cytotoxicity at 1000 µM ([1]; Homo sapiens, A-431, light or radiation study, 3 h, read-out: cell death, 1 mM MAL 3 h and irradiation (630 nm, 25 J/cm2) in the absence of any SRHD): 27.5 ± 5.5%; PpIX accumulation compared to untreated controls ([2]; MAL 1 mM, 3 hours): significantly increased PpIX accumulation compared to untreated controls; MitoSOX fluorescence, percentage of untreated controls ([4]; MAL 1 mM alone, photoirradiated): 193.7±7.3% and 220.1±8.5% and 143.3±4.8% and 207.4±16.7%
